Source: ChEMBL document CHEMBL5303573, “Mapping human microbiome drug metabolism by gut bacteria and their genes” (Nature, 2019)

Experiments:
Format in all cases: ADME
Set-up in all cases: dose 2 uM
Details in all cases: 2 µM
Nitroreductase = target: T1, Nitroreductase (Bacteroides thetaiotaomicron, UniProt Q8A911); assay: (§1) The drug is tested on Bacteroides thetaiotaomicron strain: VPI-5482 for biotransformation. The drug concentrations were measured before and after a 12-h incubation by liquid-chromatography-coupled mass spectrometry (LC–MS)
T1 sequence (Q8A911 whole entry): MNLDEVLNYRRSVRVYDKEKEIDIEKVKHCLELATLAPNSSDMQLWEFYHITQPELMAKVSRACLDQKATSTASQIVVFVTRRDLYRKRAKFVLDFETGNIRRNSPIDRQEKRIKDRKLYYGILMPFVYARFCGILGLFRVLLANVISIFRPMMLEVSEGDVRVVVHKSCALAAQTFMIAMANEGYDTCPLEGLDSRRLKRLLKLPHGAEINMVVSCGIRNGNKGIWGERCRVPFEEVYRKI

Endoglucanase E (EGE) = target: T2, Endoglucanase E (EGE) (Bacteroides thetaiotaomicron, UniProt Q8AAL9); assay: as §1
T2 sequence (Q8AAL9 whole entry): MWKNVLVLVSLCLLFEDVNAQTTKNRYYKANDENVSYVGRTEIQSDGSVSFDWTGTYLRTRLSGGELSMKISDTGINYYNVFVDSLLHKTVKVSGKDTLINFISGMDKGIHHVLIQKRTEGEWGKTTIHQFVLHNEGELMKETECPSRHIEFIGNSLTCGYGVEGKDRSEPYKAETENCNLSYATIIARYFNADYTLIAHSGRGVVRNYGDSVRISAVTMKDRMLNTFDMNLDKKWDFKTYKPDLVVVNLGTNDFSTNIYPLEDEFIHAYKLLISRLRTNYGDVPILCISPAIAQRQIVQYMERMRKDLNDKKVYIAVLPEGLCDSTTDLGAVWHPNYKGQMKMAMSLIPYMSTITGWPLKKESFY

Lipase = target: T3, Lipase (Bacteroides thetaiotaomicron, UniProt Q8A3J3); assay: as §1
T3 sequence (Q8A3J3 whole entry): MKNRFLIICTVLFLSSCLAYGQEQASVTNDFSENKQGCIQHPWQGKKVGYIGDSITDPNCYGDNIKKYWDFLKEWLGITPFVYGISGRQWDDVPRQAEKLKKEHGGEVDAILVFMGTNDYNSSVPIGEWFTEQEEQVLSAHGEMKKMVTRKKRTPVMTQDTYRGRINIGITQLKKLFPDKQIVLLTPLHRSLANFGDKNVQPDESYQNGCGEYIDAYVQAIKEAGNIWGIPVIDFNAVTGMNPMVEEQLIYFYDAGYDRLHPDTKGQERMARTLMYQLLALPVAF

[1] = target: T4, NADH dehydrogenase/NAD(P)H nitroreductase (Bacteroides thetaiotaomicron, UniProt Q8A8L9); assay: as §1
T4 sequence (Q8A8L9 whole entry): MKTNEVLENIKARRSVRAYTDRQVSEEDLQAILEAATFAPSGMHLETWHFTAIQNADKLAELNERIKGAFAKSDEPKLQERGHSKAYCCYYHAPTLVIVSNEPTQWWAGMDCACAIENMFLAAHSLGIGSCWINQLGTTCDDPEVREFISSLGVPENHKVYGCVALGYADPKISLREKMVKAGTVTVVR

[2] = target: T5, Lipolytic enzyme, G-D-S-L family (Bacteroides thetaiotaomicron, UniProt Q8A0C5); assay: as §1
T5 sequence (Q8A0C5 whole entry): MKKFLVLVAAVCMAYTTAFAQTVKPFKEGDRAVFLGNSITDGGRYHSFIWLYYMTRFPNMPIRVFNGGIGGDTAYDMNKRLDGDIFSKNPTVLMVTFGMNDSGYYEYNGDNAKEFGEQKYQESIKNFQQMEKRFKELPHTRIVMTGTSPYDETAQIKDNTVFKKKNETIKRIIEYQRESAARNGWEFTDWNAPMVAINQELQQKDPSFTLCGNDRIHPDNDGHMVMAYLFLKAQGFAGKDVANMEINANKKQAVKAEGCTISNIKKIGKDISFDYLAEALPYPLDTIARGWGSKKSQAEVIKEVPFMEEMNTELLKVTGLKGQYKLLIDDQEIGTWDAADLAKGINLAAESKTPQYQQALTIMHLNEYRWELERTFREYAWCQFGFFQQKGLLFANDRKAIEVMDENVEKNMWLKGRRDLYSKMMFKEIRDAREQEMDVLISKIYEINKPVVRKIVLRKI

Acylhydrolase = target: T6, Acylhydrolase (Bacteroides thetaiotaomicron, UniProt Q8AA96); assay: as §1
T6 sequence (Q8AA96 whole entry): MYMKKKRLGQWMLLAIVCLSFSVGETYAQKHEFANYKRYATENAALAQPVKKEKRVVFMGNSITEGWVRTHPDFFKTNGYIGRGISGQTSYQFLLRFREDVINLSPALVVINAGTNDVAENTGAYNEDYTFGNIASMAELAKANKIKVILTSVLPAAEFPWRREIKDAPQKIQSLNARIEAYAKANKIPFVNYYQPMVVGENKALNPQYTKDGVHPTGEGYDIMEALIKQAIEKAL

[3] = target: T7, Sialic acid-specific 9-O-acetylesterase (Bacteroides thetaiotaomicron, UniProt Q8A0D0); assay: as §1
T7 sequence (Q8A0D0 whole entry): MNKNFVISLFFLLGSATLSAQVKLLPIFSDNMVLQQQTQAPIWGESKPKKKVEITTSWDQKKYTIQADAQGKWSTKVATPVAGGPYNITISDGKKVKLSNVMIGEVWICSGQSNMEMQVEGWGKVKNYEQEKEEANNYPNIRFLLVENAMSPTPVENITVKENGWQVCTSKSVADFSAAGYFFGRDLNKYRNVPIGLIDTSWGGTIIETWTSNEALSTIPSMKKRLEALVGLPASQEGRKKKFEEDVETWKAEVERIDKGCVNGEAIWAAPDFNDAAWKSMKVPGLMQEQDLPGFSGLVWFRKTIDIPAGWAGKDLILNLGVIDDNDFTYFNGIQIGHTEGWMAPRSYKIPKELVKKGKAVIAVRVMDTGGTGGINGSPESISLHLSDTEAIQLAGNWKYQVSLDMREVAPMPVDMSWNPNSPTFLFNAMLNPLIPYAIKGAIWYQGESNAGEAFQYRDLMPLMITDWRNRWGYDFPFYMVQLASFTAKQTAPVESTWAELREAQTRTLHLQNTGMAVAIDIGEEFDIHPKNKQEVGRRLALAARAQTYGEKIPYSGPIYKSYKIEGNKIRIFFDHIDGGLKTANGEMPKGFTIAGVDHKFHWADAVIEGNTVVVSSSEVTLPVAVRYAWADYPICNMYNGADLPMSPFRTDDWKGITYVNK

Regulatory protein = target: T8, Regulatory protein (Bacteroides thetaiotaomicron, UniProt Q8A576); assay: as §1
T8 sequence (Q8A576 whole entry): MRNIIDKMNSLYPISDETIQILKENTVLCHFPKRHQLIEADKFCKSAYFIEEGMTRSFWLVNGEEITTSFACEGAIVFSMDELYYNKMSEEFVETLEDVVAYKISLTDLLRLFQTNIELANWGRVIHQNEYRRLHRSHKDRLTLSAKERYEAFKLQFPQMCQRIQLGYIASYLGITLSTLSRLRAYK

Measured: Bacterial Biotransformation

C[C@]12CCC(=O)C=C1[C@@H]1C[C@@H]1[C@H]1[C@@H]3[C@@H]4C[C@@H]4[C@@]4(CCC(=O)O4)[C@@]3(C)CC[C@@H]12 [DROSPIRENONE]
Compound NOT metabolized: all assays above
